Assay results published in ChEMBL document CHEMBL1157539, “Thousands of chemical starting points for antimalarial lead identification” (Nature, 2010).

test system: Plasmodium falciparum; test: GSK_TCMDC: Inhibition of Plasmodium falciparum 3D7 in whole erythrocytes, using parasite LDH activity as an index of growth.; assay type: functional, organism-based; conditions: Plasmodium falciparum, 3D7

| Compound | XC50 |
| --- | --- |
| CN(C)Cc1ccc(-c2cc3c(Nc4ccc(OCc5cccc(F)c5)c(Cl)c4)ncnc3s2)[nH]1 | 824 nM |
| COc1cc(-c2nc(-c3ccc(C(=O)c4ccc(F)cc4)cc3)c(-c3ccccc3)[nH]2)cc(OC)c1O | 659 nM |
| Clc1ccc(-c2cc(-c3csc(Nc4ccncc4)n3)on2)cc1 | 133 nM |
| COc1ccc(CNCc2cccc(-c3ccc(-c4nc5ccccc5[nH]4)s3)c2)cc1 | 816 nM |
| CN1CCC(Oc2cc(NC(=O)Nc3ccc(-c4ccncc4)c(Cl)c3)ccc2Cl)CC1 | 530 nM |
| Nc1nc(N)c2c(ccc3c2ccn3C2CCCCC2)n1 | 123 nM |
| Cc1cc(N(C)C)nc(Nc2ccc(NC(=O)c3c(F)cccc3F)cc2)n1 | 1380 nM |
| CCOc1ccc(C(=O)Nc2cc(Cl)ccc2O)cc1Cl | 705 nM |
| O=C(N[C@H](Cc1ccc(Cl)cc1)C(=O)N1CCN(c2ccnc3cc(Cl)ccc23)CC1)[C@H]1Cc2ccccc2CN1 | 424 nM |
| CC(C)Cn1c(Sc2ccc(C#N)c([N+](=O)[O-])c2)nnc1-c1cccs1 | 1080 nM |
| OC(Cn1ccnc1)(c1ccc(Cl)cc1Cl)C1CCCCC1 (configuration not stated) | 984 nM |
| CC(Cc1ccc(C(=O)OC(c2ccccc2)c2ccccc2)cc1)NCC(O)c1ccccc1 (configuration not stated) | 178 nM |
| CN(C)S(=O)(=O)c1cc(-c2ccc3nccc(-c4cccc(S(N)(=O)=O)c4)c3c2)cnc1N | 251 nM |
| CC1(C)CCNc2cc(NC(=O)c3ccc(-c4ncccc4C(F)(F)F)cc3)ccc21 | 903 nM |
| CCOC(=O)C(C#N)NC(=O)C=Cc1ccccc1 (configuration not stated) | 804 nM |
| CC(=O)Nc1ncc(C(=O)Nc2cccc(-c3ccc(-c4nc5cc(C(F)(F)F)ccc5[nH]4)cc3)c2)s1 | 590 nM |
| N#Cc1ccc(-c2ccc(OCC(O)CN3CCCN(Cc4cccc(O)c4Cl)CC3)cc2)cc1 (configuration not stated) | 690 nM |
| O=C(C=Cc1ccc(Cl)c(Cl)c1)NCCCCCN1CCC(CCNC(=O)C(c2ccccc2)c2ccccc2)CC1 | 1010 nM |
| O=C(/C=C/c1ccc(-c2ccccc2)cc1)NCCCCCN1CCC(c2c[nH]c3ccccc23)CC1 | 854 nM |
| CC(NC(C)(C)C)C(O)c1ccc(Cl)c(C(F)(F)F)c1 (configuration not stated) | 742 nM |
| N#Cc1cccc(CNC(=O)c2cccc(Nc3ccnc4ccc(F)cc34)c2)c1 | 987 nM |
| CCCCc1ccc(NC(=O)Nc2cccc(CCNCc3ccccc3)c2)cc1 | 881 nM |
| COc1ccc(Nc2ncc3c(-c4cccc(NC(=O)c5ccccc5)c4)c[nH]c3n2)cc1OC | 461 nM |
| Cc1[nH]c(C)c(-c2ccc(-c3cccc(Cl)c3)nc2)c(=O)c1Cl | 186 nM |
| O=C1COc2ccccc2N1CCN1CCC(NCc2ccc(-c3cccs3)cc2)CC1 | 1430 nM |

| Compound | XC50 |
| --- | --- |
| COc1cc(NC(=O)c2cc([N+](=O)[O-])ccc2NC(=O)CNC2CCCCC2C)cc(OC)c1 (configuration not stated) | 1730 nM |
| N#Cc1ccc(OCCN(Cc2ccccc2C(F)(F)F)c2ccc(C#N)c(C(F)(F)F)c2)cc1 | 277 nM |
| CCc1cn(CCc2ccccc2)c2ccc(C(=O)N[C@@H](Cc3ccccc3)[C@H](O)CNC(C)(C)CCCC(C)C)cc12 | 219 nM |
| COc1cc(Nc2ncc3c(C)nc(-c4cccc(Nc5ccc(CN6CCS(=O)(=O)CC6)cc5)c4)n3n2)cc(OC)c1OC | 865 nM |
| CCCCN1C(=O)C2CC(=O)CC(C3CCCCC3)C2C1=O (configuration not stated) | 888 nM |
| CCOC(=O)NOC(C(=O)O)c1ccccc1 (configuration not stated) | 189 nM |
| CC1CN(Cc2cccc(-c3ccc(-c4nc5ccccc5[nH]4)cc3)c2)CC(C)O1 (configuration not stated) | 857 nM |
| O=C(Nc1cccc(-c2csc(-c3nc4ccccc4[nH]3)c2)c1)c1cc(=O)c2ccccc2[nH]1 | 232 nM |
| CN(C)CCOc1ccc(-c2cc(-c3ccncc3)c(-c3ccc(Cl)c(O)c3)[nH]2)cc1 | 224 nM |
| CN(C)CCCn1cncc1-c1ccc2ncnc(Nc3ccc4c(cnn4Cc4ccccc4)c3)c2c1 | 726 nM |
| O=C(c1cc(-c2cccs2)n[nH]1)N1CCN(S(=O)(=O)c2ccc(Br)cc2)CC1 | 357 nM |
| Cc1cc(Cl)c(S(=O)(=O)NC(C)(C)C)cc1OCC(=O)NC1CCCCC1 | 548 nM |
| O=C(Nc1ccccc1Br)N[C@@H]1CCN(c2ccnc3ccccc23)C1 | 935 nM |
| Nc1ccc(-c2ccc3ccnc(N)c3c2)cn1 | 353 nM |
| COc1ccc(-c2cccc(NC(=O)c3cccc(Cl)c3)c2)cc1CN1CCCC1 | 731 nM |
| O=C(Nc1ccc2c(c1)OCO2)c1cc(-c2cccnc2)cnc1NCc1ccc2c(c1)OCO2 | 1190 nM |
| O=C(Nc1cccc(-c2cccc(-c3nc4cc(C(F)(F)F)ccc4[nH]3)c2)c1)c1cccnc1 | 404 nM |
| Cc1nc(-c2ccc(-c3ccc(NC(=O)Nc4ccc(I)c(OCCN(C)C)c4)cc3)c(C)c2)no1 | 372 nM |
| Cc1cccc(-c2nn(-c3ccccc3)c3[nH]c(=O)c(CN4CCSCC4)cc23)c1 | 1010 nM |
| FC(F)(F)c1ccc2[nH]c(-c3ccc(-c4ccc(CNCc5cnn(-c6ccccc6)n5)cc4)s3)nc2c1 | 456 nM |
| CCc1cn2c3c(cc(C(=O)N[C@@H](Cc4ccccc4)[C@H](O)CNC4CCC4)cc13)N(C)S(=O)(=O)CC2 | 99 nM |
| CCCCCCC(N)c1ccc(OCCCOc2ccc(C(N)CCCCCC)cc2)cc1 (configuration not stated) | 1140 nM |
| Nc1nc(Nc2ccc(Cl)cc2)nc2ccccc12 | 732 nM |
| COc1cc(OC)cc(C(=O)Nc2ccc(Nc3nc(C)cc(N(C)C)n3)cc2)c1 | 646 nM |
| Cc1ccccc1C1CCN(C2CCC(NC(=O)c3ccc(-c4ccccc4F)o3)CC2)CC1 (configuration not stated) | 1050 nM |

| Compound | XC50 |
| --- | --- |
| CCOc1ccc(C(=O)Nc2cc(Br)c3c(c2)CNCC3)cc1C#N | 765 nM |
| COc1ccccc1-c1nc2nc(N)nc(N)c2nc1-c1ccccc1OC | 1250 nM |
| COc1ccc(CNCc2ccccc2)cc1-c1ccc(S(=O)(=O)NCCN2CCCC2)c(F)c1 | 1140 nM |
| CC(C)(C)Cn1cc(-c2ccc(C(=O)NCCc3ccc(S(C)(=O)=O)cc3)cc2)c(N)n1.CC(C)(C)Cn1ncc(-c2ccc(C(=O)NCCc3ccc(S(C)(=O)=O)cc3)cc2)c1N | 647 nM |
| c1cc(C2=NC3CCCCC3N2)ccc1OCCCOc1ccc(C2=NC3CCCCC3N2)cc1 (configuration not stated) | 731 nM |
| Cc1ccc(C2CC(=O)CC(c3ccccn3)C2[N+](=O)[O-])cc1 (configuration not stated) | 859 nM |
| CC(=O)N(C)c1cccc(C(=O)Nc2ccc(-c3cccc(-c4nc5cccc(C)c5[nH]4)c3)cc2)c1 | 651 nM |
| O=C(Nc1ccc2c(c1)OCCO2)c1cc(-c2cccnc2)nc2ccc(Cl)cc12 | 714 nM |
| CCCNCc1ccc(-c2ccc(CN(CCOC)C(=O)Cc3cccnc3)cc2)nc1 | 823 nM |
| Cc1ccccc1C1CCN(C2CCC(NC(=O)c3csc(-c4cccc(Cl)c4)n3)CC2)CC1 (configuration not stated) | 1150 nM |
| COc1ccc2ncc(F)c(CCN3CCC(NCc4ccc5c(c4)CCO5)CC3)c2n1 | 677 nM |
| CC(C)NCc1ccc(-c2ccc(CN3CCCC(c4ccccc4)C3)cc2)c(C(=O)NCC2CCCCC2)c1 (configuration not stated) | 722 nM |
| CCCCCCN1CCCN(Cc2ccc(C(=O)Nc3ccc(F)c(F)c3)cc2)CC1 | 612 nM |
| CC(C)(C)c1ccc2[nH]c(-c3ccc(C(=O)NCCCc4ccccc4)cc3)nc2c1 | 801 nM |
| CC(C)NCc1ccc(-c2cccc(NC(=O)c3cccc(C#N)c3)c2)cc1 | 406 nM |
| Cc1cc(N[C@@H](Cc2ccccc2)C(=O)NCc2cccc(F)c2)nc(NCCc2cccnc2)n1 | 1340 nM |
| CC(C(=O)N1CCCC1)N1CCN(S(=O)(=O)c2ccc(C(C)(C)C)cc2)CC1 (configuration not stated) | 636 nM |
| CN1C(=O)[C@H](NC(=O)[C@@H](Cc2ccccc2)NC(=S)Nc2ccccc2)N=C(c2ccccc2)c2ccccc21 | 855 nM |
| Cc1ccc(CC(C)NCC(O)c2cccc(C(F)(F)F)c2)c(C)c1 (configuration not stated) | 703 nM |
| O=C(Nc1cccc(-c2nc3ccccc3s2)c1)c1ccccc1[N+](=O)[O-] | 767 nM |
| CC(=O)Nc1nc(C(=O)Nc2ccc(-c3cccc(-c4nc5ccccc5[nH]4)c3)cc2)cs1 | 552 nM |
| CC(C)Cn1ncc2c3c(N)nc(N)nc3ccc21 | 159 nM |
| COc1ccc2cc(-c3nc(-c4c(Cl)cccc4Cl)[nH]c3-c3ccnc(NCCCN4CCN(C)CC4)c3)ccc2c1 | 708 nM |
| O=C(N[C@@H](Cc1ccccc1)CN1CCC(Oc2ccc(F)cc2)CC1)c1ccc(OCCCN2CCCCC2)cc1 | 885 nM |
| CC(C)c1ccc(NS(=O)(=O)c2cccc(C(=O)NC3CCN(CC4CCCCC4)CC3)c2)cc1 | 1300 nM |

| Compound | XC50 |
| --- | --- |
| CCCNCc1ccc(-c2ccc(CN(C(=O)c3nn(-c4ccccc4)nc3C)C3CCOCC3)cc2)nc1 | 144 nM |
| Cc1ccc(NC(=O)c2ccc(CN3CCCN(CC4CCCCC4)CC3)cc2)cc1 | 797 nM |
| CN(C)c1ccc(CN2CCC(CNC(=O)c3cc(-c4cccc(F)c4)cs3)C2)cc1 (configuration not stated) | 1020 nM |
| COc1ccc(CC(Cc2ccc(OC)cc2)NCC(O)c2cccc(Cl)c2)cc1 (configuration not stated) | 155 nM |
| Cc1cccc2nc(-c3cccc(-c4ccc(NC(=O)NCc5ccccc5)cc4)c3)[nH]c12 | 231 nM |
| CCc1cccc2sc(N3CCN(C(=O)c4ccc([N+](=O)[O-])o4)CC3)nc12 | 773 nM |
| Nc1ccnc(N2CCC(CCOc3cc(C(F)(F)F)nc4c(C(F)(F)F)cccc34)CC2)c1 | 792 nM |
| Cn1nc(C(F)(F)F)c(-c2ccc(F)cc2)c1NC(=O)Nc1ccc(F)cc1F | 765 nM |
| Cc1cc2nc(-c3ccc(C(=O)NCc4cccc(F)c4)cc3)[nH]c2cc1C | 962 nM |
| COc1cccc(-c2c(C#N)c(N)nc3c2c(C)nn3-c2ccccc2)c1O | 282 nM |
| N=C(N)c1ccc(C(=O)Nc2cccc(C(=N)N)c2)cc1 | 1040 nM |
| C=CC[C@H](C[C@H](O)[C@H](Cc1ccccc1)NC(=O)c1nn(-c2ccccc2)nc1C)C(=O)NC1CCCCC1 | 915 nM |
| CCc1cn2c3c(cc(C(=O)N[C@@H](Cc4ccccc4)[C@H](O)CNC4CCCC4)cc13)N(C)S(=O)(=O)CC2 | 46.9 nM |
| CC[C@H](C)CNC(=O)c1ccnc(-c2cccc(CN(C)C3CCN(C)CC3)c2)c1 | 898 nM |
| COc1ccc(C2C(C(=O)OC3CCCC3)=C(C)NC3=C2C(=O)CCC3)cc1Br (configuration not stated) | 593 nM |
| c1cncc(CCNCc2ccc(-c3ccc(-c4nc5ccccc5[nH]4)s3)cc2)c1 | 213 nM |
| Cc1noc(C)c1C(=O)N1CCCC(c2[nH]c3c(C)cccc3c2-c2ccncc2)C1 (configuration not stated) | 843 nM |
| COc1ccccc1C1CCN(C2CCC(NC(=O)/C=C/c3cccc(C(F)(F)F)c3)CC2)CC1 (configuration not stated) | 806 nM |
| CC(C)NCc1cccc(-c2ccc(NC(=O)c3cccc(C#N)c3)cc2)c1 | 324 nM |
| COc1ccccc1C1CC(c2ccc(C)cc2)=NN1C(=O)c1ccccc1 (configuration not stated) | 886 nM |
| CC1(C)OC[C@]2(C)[C@@H](CC[C@]3(C)C4=CC(=O)CCC4CC[C@@H]23)O1 (some centres not stated) | 282 nM |
| COc1cc(-c2nc(C(C)(C)CN)[nH]c2-c2ccncc2)ccc1Br | 769 nM |
